# Results: paper PMC11882969 (Nature Communications, 2025)
# Read-outs that look alike come from different tables or passages of the source.
# Experiments:
# CB1 (rCB1) [1] = target: T1, CB1 (rCB1) (Rattus norvegicus, UniProt P20272); test: Single-point radioligand displacement screen; type: binding; details: 10 µM, 1 µM or 300 nM by cell colour (not visible)
# hCB1 = hCB1 (Homo sapiens, UniProt P21554); test: bioSensAll ebBRET signaling profiling, hCB1; type: cell-based; set-up: host or cells: HEK293SL cells, transient PEI transfection; details: for Barr2+GRK2 hCB1 response: Barr2+GRK2 biosensor; for Gi1 hCB1 / GoB hCB1: single replicate values, FigS6a; for EC50: read-out: EC50 [95% CI]; for Emax: normalized to CP-55,940
# Sequence of hCB1 (P21554 whole entry): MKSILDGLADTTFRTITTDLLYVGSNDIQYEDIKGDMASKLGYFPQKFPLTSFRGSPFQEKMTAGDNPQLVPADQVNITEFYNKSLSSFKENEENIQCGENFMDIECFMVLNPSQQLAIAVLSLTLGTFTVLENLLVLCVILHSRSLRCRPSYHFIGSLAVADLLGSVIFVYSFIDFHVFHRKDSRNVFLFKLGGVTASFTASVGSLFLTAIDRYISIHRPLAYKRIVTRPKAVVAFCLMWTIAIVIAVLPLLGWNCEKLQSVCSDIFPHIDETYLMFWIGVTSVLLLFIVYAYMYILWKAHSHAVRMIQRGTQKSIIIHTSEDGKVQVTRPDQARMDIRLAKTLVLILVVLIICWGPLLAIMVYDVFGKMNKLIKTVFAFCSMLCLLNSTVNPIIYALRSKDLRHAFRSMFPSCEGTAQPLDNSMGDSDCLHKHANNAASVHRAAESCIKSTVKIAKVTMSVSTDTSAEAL
# CB1 (rCB1) [2] = target: T1, CB1 (rCB1); test: Radioligand competition binding, [3H]-CP-55,940, rat brain membranes
# T1 sequence (P20272 whole entry): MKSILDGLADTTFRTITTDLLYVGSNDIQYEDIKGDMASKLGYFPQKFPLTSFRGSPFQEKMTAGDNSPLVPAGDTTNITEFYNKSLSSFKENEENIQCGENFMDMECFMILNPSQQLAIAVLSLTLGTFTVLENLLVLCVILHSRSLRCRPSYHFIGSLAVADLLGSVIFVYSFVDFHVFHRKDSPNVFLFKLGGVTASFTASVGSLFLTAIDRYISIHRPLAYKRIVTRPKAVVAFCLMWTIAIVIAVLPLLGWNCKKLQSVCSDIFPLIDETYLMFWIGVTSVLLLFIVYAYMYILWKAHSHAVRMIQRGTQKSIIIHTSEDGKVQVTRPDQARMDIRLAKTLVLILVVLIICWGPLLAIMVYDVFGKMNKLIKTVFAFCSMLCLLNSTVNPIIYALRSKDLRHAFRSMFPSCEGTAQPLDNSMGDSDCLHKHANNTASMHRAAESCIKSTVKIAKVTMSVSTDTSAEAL
compound,measurement,setting,value
Cc1nn(Cc2ccc(Cl)cc2)c(C)c1C(=O)OCC1CSc2ccccc2O1 (centres unmarked) [‘5463],"% 1H-CP-55,940 displacement (mean) from single point screen",CB1 (rCB1) [1],81.83%
same,Barr2+GRK2 hCB1 response,hCB1; Log [Compound] (M) -4.22186,-7.036
same,Barr2+GRK2 hCB1 response,hCB1; Log [Compound] (M) -4.63927,-40.2196
same,Barr2+GRK2 hCB1 response,hCB1; Log [Compound] (M) -5.05788,-35.4335
same,Barr2+GRK2 hCB1 response,hCB1; Log [Compound] (M) -5.47381,-41.4959
same,Barr2+GRK2 hCB1 response,hCB1; Log [Compound] (M) -5.89285,-45.6439
same,Barr2+GRK2 hCB1 response,hCB1; Log [Compound] (M) -6.31878,-47.8774
same,Barr2+GRK2 hCB1 response,hCB1; Log [Compound] (M) -6.72585,-53.9398
same,Barr2+GRK2 hCB1 response,hCB1; Log [Compound] (M) -7.14267,-43.7294
same,Barr2+GRK2 hCB1 response,hCB1; Log [Compound] (M) -7.55284,-45.9629
same,Barr2+GRK2 hCB1 response,hCB1; Log [Compound] (M) -8,-54.2588
same,Barr2+GRK2 hCB1 response,hCB1; Log [Compound] (M) -8.22186,-7.036
same,Barr2+GRK2 hCB1 response,hCB1; Log [Compound] (M) -8.39794,-23.3088
same,Barr2+GRK2 hCB1 response,hCB1; Log [Compound] (M) -8.68787,-41.1769
same,Barr2+GRK2 hCB1 response,hCB1; Log [Compound] (M) -9.15521,-53.6207
same,Barr2+GRK2 hCB1 response,hCB1; Log [Compound] (M) -9.61989,-38.9433
same,Barr2+GRK2 hCB1 response,hCB1; Log [Compound] (M) -10.0969,-52.3444
same,Barr2+GRK2 hCB1 response,hCB1; Log [Compound] (M) -10.5529,-37.0289
same,Barr2+GRK2 hCB1 response,hCB1; Log [Compound] (M) -11.0177,-49.4727
same,Barr2+GRK2 hCB1 response,hCB1; Log [Compound] (M) -11.4949,-43.0913
same,Barr2+GRK2 hCB1 response,hCB1; Log [Compound] (M) -11.9208,-24.266
same,Barr2+GRK2 hCB1 response,hCB1; Log [Compound] (M) -12.3979,-7.993
same,Barr2+GRK2 hCB1 response,hCB1; Log [Compound] (M) -12.8861,-18.5227
same,Barr2+GRK2 hCB1 response,hCB1; Log [Compound] (M) -13.3979,10.832
same,Gi1 hCB1,hCB1; Log [Compound] (M) -4.22186,28.0981
same,GoB hCB1,hCB1; Log [Compound] (M) -4.22186,24.5257
same,Gi1 hCB1,hCB1; Log [Compound] (M) -4.63927,21.0665
same,GoB hCB1,hCB1; Log [Compound] (M) -4.63927,14.8206
same,Gi1 hCB1,hCB1; Log [Compound] (M) -5.05788,16.6796
same,GoB hCB1,hCB1; Log [Compound] (M) -5.05788,10.4802
same,Gi1 hCB1,hCB1; Log [Compound] (M) -5.47381,14.3358
same,GoB hCB1,hCB1; Log [Compound] (M) -5.47381,11.0879
same,Gi1 hCB1,hCB1; Log [Compound] (M) -5.89285,7.716
same,GoB hCB1,hCB1; Log [Compound] (M) -5.89285,6.331
same,Gi1 hCB1,hCB1; Log [Compound] (M) -6.31878,3.392
same,GoB hCB1,hCB1; Log [Compound] (M) -6.31878,2.3203
same,Gi1 hCB1,hCB1; Log [Compound] (M) -6.72585,-0.6618
same,GoB hCB1,hCB1; Log [Compound] (M) -6.72585,-6.013
same,Gi1 hCB1,hCB1; Log [Compound] (M) -7.14267,-2.705
same,GoB hCB1,hCB1; Log [Compound] (M) -7.14267,-6.777
same,Gi1 hCB1,hCB1; Log [Compound] (M) -7.55284,-2.958
same,GoB hCB1,hCB1; Log [Compound] (M) -7.55284,-3.8083
same,Gi1 hCB1,hCB1; Log [Compound] (M) -8,-2.752
same,GoB hCB1,hCB1; Log [Compound] (M) -8,-8.791
same,Gi1 hCB1,hCB1; Log [Compound] (M) -8.22186,6.512
same,GoB hCB1,hCB1; Log [Compound] (M) -8.22186,0.4626
same,Gi1 hCB1,hCB1; Log [Compound] (M) -8.39794,-3.021
same,GoB hCB1,hCB1; Log [Compound] (M) -8.39794,-7.2806
same,Gi1 hCB1,hCB1; Log [Compound] (M) -8.68787,0.4468
same,GoB hCB1,hCB1; Log [Compound] (M) -8.68787,-0.5617
same,Gi1 hCB1,hCB1; Log [Compound] (M) -9.15521,-1.422
same,GoB hCB1,hCB1; Log [Compound] (M) -9.15521,-2.124
same,Gi1 hCB1,hCB1; Log [Compound] (M) -9.61989,-0.7093
same,GoB hCB1,hCB1; Log [Compound] (M) -9.61989,-5.475
same,Gi1 hCB1,hCB1; Log [Compound] (M) -10.0969,-1.0102
same,GoB hCB1,hCB1; Log [Compound] (M) -10.0969,-3.201
same,Gi1 hCB1,hCB1; Log [Compound] (M) -10.5529,-0.3926
same,GoB hCB1,hCB1; Log [Compound] (M) -10.5529,-3.652
same,Gi1 hCB1,hCB1; Log [Compound] (M) -11.0177,-0.8518
same,GoB hCB1,hCB1; Log [Compound] (M) -11.0177,-4.381
same,Gi1 hCB1,hCB1; Log [Compound] (M) -11.4949,-1.279
same,GoB hCB1,hCB1; Log [Compound] (M) -11.4949,-3.965
same,Gi1 hCB1,hCB1; Log [Compound] (M) -11.9208,-2.99
same,GoB hCB1,hCB1; Log [Compound] (M) -11.9208,-2.853
same,Gi1 hCB1,hCB1; Log [Compound] (M) -12.3979,-0.25
same,GoB hCB1,hCB1; Log [Compound] (M) -12.3979,-4.034
same,Gi1 hCB1,hCB1; Log [Compound] (M) -12.8861,-2.879
same,GoB hCB1,hCB1; Log [Compound] (M) -12.8861,-4.451
same,Gi1 hCB1,hCB1; Log [Compound] (M) -13,-0.7885
same,GoB hCB1,hCB1; Log [Compound] (M) -13,-4.468
same,Gi1 hCB1,hCB1; Log [Compound] (M) cell empty,0.7319
same,GoB hCB1,hCB1; Log [Compound] (M) cell empty,-2.437
same,pEC50 [95% CI],hCB1; hCB1 Gi1,5.3 [3.4 – 5.8]
same,pEC50 [95% CI],hCB1; hCB1 GoB,5.1 [6.0]
same,EC50,hCB1; hCB1 Gi1,4.94 µM
same,EC50,hCB1; hCB1 GoB,7.47 µM
same,Emax,"hCB1; read-out: Emax [95% CI], hCB1 Gi1",31%
same,Emax,"hCB1; read-out: Emax [95% CI], hCB1 GoB",32%
same,pKi [95% CI],CB1 (rCB1) [2]; rCB1,6.1 [5.8 – 6.4]
same,Ki,"CB1 (rCB1) [2]; read-out: Ki [95% CI], rCB1, [3H]-CP-55,940",0.825 µM
